A short description of data set [1]: ALT and AST levels and adverse side effects, ApoB study (Table 26). Particulars: Balb/c mice, i.p. twice per week for three weeks, 2.4 μmol/kg, 48 h after final injection. The format is in vivo, mouse. The procedure: (§1) Antisense compound doses included 2.4, 1.2, 0.6, 0.3 and 0.15 μmol/kg. For antisense compounds 14 nucleotides in length, these doses equate to approximately 12, 6, 3, 1.5 or 0.75 mg/kg, respectively. Shown in Table 25 are the sequences and motifs of the antisense compounds used in this study. […] Bolded residues indicate 2′-O-methoxyethyl moieties and italicized residues indicate methyleneoxy (4′-CH2—O-2′) BNAs. The internucleoside linkages of each compound are phosphorothioate throughout. All cytosine residues of ISIS 147764 and ISIS 372938 are replaced by 5-methyl cytosines. For ISIS 387462, only the cytosine residue in the wing of the compound is replaced by 5-methyl cytosine. ApoB antisense compounds are targeted to publicly available ApoB-100 sequences, including Genbank Accession No. XM—137955.5 (SEQ ID NO: 2).
(§2) Forty-eight hours following the final injection, mice were sacrificed to evaluate transaminases (Table 26); liver and kidney weight (Table 27); triglyceride, LDL, HDL and free fatty acid levels (Table 28); target mRNA level in liver (Table 29); target protein level in plasma; and oligonucleotide tissue concentration (Table 30). These endpoints were determined using methods described herein and well known to those of ordinary skill in the art.

Data set [2] relates to ApoB mRNA. In words: ApoB mRNA level in liver, Balb/c mice dosed i.p. twice per week for three weeks (Table 29); EC50 in liver. The format is in vivo, mouse. The note with it: Table 30, Balb/c mice, 2.4 μmol/kg. How it is done:
Prior to quantitative PCR analysis, primer-probe sets specific to the target gene being measured were evaluated for their ability to be “multiplexed” with a GAPDH amplification reaction. After isolation the RNA is subjected to sequential reverse transcriptase (RT) reaction and real-time PCR, both of which are performed in the same well. RT and PCR reagents were obtained from Invitrogen Life Technologies (Carlsbad, Calif.). […] The RT reaction was carried out by incubation for 30 minutes at 48° C. Following a 10 minute incubation at 95° C. to activate the PLATIN 9M® Taq, 40 cycles of a two-step PCR protocol were carried out: 95° C. for 15 seconds (denaturation) followed by 60° C. for 1.5 minutes (annealing/extension).
170 μL of RiboGreen® working reagent (RiboGreen® reagent diluted 1:350 in 10 mM Tris-HCl, 1 mM EDTA, pH 7.5) was pipetted into a 96-well plate containing 30 μL purified cellular RNA. The plate was read in a CytoFluor® 4000 (PE Applied Biosystems) with excitation at 485 nm and emission at 530 nm.
as §1, §2
The EC50 for ISIS 387462 in the liver was determined by comparing oligonucleotide concentration in the liver to inhibition of ApoB mRNA.

In data set [3] the test system is ApoB mRNA. In words: ApoB mRNA in liver, Balb/c mice, BNA short antisense compounds twice per week for three weeks (Table 89). The format is in vivo, mouse. Particulars: relative to saline. The procedure: The short antisense compounds shown in Table 88 were tested for their effects in vivo. […] A 5-10-5 MOE gapmer was used for a control treatment. Mice were sacrificed approximately 48 hours following the final dose. Liver tissue was collected for RNA isolation, and blood was collected for serum chemistry analyses. ApoB mRNA levels were measured by real-time PCR as described herein. ApoB mRNA levels were normalized to RNA levels as determined by RIBOGREEN, and are presented in Table 89 as percent inhibition relative to ApoB mRNA levels in saline-treated control animals.

Data set [4] concerns ApoB mRNA. In words: ApoB mRNA in liver and ED50, single dose of BNA short antisense compounds (Table 92). The format is in vivo, mouse. The note with it: ApoB mRNA in liver; for % Inhib: Balb/c mice, relative to saline. How it is done: The short antisense compounds tested were ISIS 387462 and ISIS 398296. Each dose group consisted of four animals. A 5-10-5 MOE gapmer was used for a control treatment. Mice were sacrificed approximately 48 hours following the final dose. Liver tissue was collected for RNA isolation, and blood was collected for serum chemistry analyses. ApoB mRNA levels were measured by real-time PCR as described herein. ApoB mRNA levels were normalized to RNA levels as determined by RIBOGREEN, and are presented in Table 92 as percent inhibition relative to ApoB mRNA levels in saline-treated control animals.
At the 8 umol/kg dose, ApoB inhibition by the short antisense compounds was greater than observed with a 5-10-5 MOE gapmer at an equivalent dose. […] Triglycerides were reduced at the highest dose.

In data set [5] the test system is PTP1B mRNA. As to the kind of experiment: Dose response for human PTP1B in HuVEC cells, PPS 198 and PPS 3000 (Tables 86, 87). The class given is cell-based. The procedure:
Human vascular endothelial (HuVEC) cells were plated at a density of 5000 cells per well and treated as described herein with nM concentrations of short antisense compound as indicated in Table 86. After the treatment period, RNA was isolated from the cells and PTP1B mRNA levels were measured by quantitative real-time PCR, as described herein. PTP1B mRNA levels were adjusted according to total RNA content as measured by RIBOGREEN®. Two different human PTP1B primer probe sets were used to measure mRNA levels. Results with Primer Probe Set (PPS) 198 are shown in Table 86, and results with Primer Probe Set (PPS) 3000 are shown in Table 87. Results are presented as percent inhibition of PTP1B mRNA expression relative to untreated control cells.

In data set [6] the test system is PTP1B mRNA. In words: Antisense inhibition of human PTP1B in HuVEC cells, 3 nM (Table 84). The class given is cell-based. The procedure:
Short antisense compounds targeted to a PTP1B nucleic acid were tested for their effects on PTP1B mRNA in vitro. Cultured HuVEC cells at a density of 5000 cells per well in a 96-well plate were treated as described herein with 3 nM of short antisense compound. After the treatment period, RNA was isolated from the cells and PTP1B mRNA levels were measured by quantitative real-time PCR, as described herein. PTP1B mRNA levels were adjusted according to total RNA content as measured by RIBOGREEN®. Results are presented as percent inhibition of PTP1B (% Inhib), relative to untreated control cells.

Data set [7] concerns PTP1B mRNA. In words: Antisense inhibition of human PTP1B in HepG2 cells, 25 nM (Table 85). The class given is cell-based. The procedure: Short antisense compounds targeted to a PTP1B nucleic acid were tested for their effects on PTP1B mRNA in vitro. Cultured HepG2 cells at a density of 10000 cells per well in a 96-well plate were treated with 25 nM of antisense oligonucleotide. After the treatment period, RNA was isolated from the cells and PTP1B mRNA levels were measured by quantitative real-time PCR, as described herein. PTP1B mRNA levels were adjusted according to total RNA content as measured by RIBOGREEN®. Results are presented as percent inhibition (% Ihib) of PTP1B, relative to untreated control cells.

The nature of data set [8]: Triglycerides, total cholesterol, HDL-C, LDL-C and adverse effects (Example 30). The format is in vivo, mouse. The procedure:
0.4, and 0.16 umol/kg. Each dose group consisted of four animals. A 5-10-5 MOE gapmer was used for a control treatment. Mice were sacrificed approximately 48 hours following the final dose. Liver tissue was collected for RNA isolation, and blood was collected for serum chemistry analyses. ApoB mRNA levels were measured by real-time PCR as described herein. ApoB mRNA levels were normalized to RNA levels as determined by RIBOGREEN, and are presented in Table 95 as percent inhibition relative to ApoB mRNA levels in saline-treated control animals.
At the 2.5 umol/kg dose, ApoB inhibition by the short antisense compounds was greater than observed with a 5-10-5 MOE gapmer at an equivalent dose. […] Triglycerides were reduced at the 2.5 and […] doses of ISIS 387462 and ISIS 391872.

Consider nine substances from patent US8372967B2, “Compounds and methods for modulating expression of GCCR” (Isis Pharmaceuticals, Inc., priority 2006, dated 2013).

Strand notation (5' to 3'): a small letter for the sugar, then the base; units joined by * are phosphorothioate-linked, units joined directly phosphodiester-linked; [ ] holds rarer units or linkages, { } end groups; capitals alone tell only the bases. [PAM-N] = nucleoside carrying a 2'-(butylacetamido)-palmitamide group (palmitic acid C16 conjugate) (N: the base); e = 2'-O-(2-methoxyethyl) (MOE); l = locked nucleic acid (LNA); [5mC] = 5-methylcytosine; d = 2'-deoxy (DNA)

In data set [1], “147764 (antisense eG*eT*e[5mC]*e[5mC]*e[5mC]*dT*dG*dA*dA*dG*dA*dT*dG*dT*d[5mC]*eA*eA*eT*eG*e[5mC]) [compound 147764]” returned an AST of 64.0 IU/L. The “ApoB mRNA level” value with ApoB mRNA [2] is on record as 58 % of saline control.

With “398296 (GGTACATGGAAGTC; 2-10-2 (6'S)-6'-methyl BNA gapmer, chemistry not fully specified) [compound 398296]”, the “% Inhib” value worked out at 17% with ApoB mRNA [3] (i.p. 0.1 umol/kg twice per week for three weeks); 35% in the data set on ApoB mRNA [3] (i.p. 0.32 umol/kg twice per week for three weeks); 80% in the data set with ApoB mRNA [3] (i.p. 1 umol/kg twice per week for three weeks); 98% in the data set on ApoB mRNA [3] (i.p. 3.2 umol/kg twice per week for three weeks); 19% in the data set on ApoB mRNA [4] (single i.p. injection 1 umol/kg); 54% with ApoB mRNA [4] (single i.p. injection 2 umol/kg). The “% Inhib” value in the data set with ApoB mRNA [4] (single i.p. injection 4 umol/kg) is given as 81%; with ApoB mRNA [4] (single i.p. injection 8 umol/kg), 97%.

As for “399301 (GTGTGCACACAGCT; all C 5-methyl, all phosphorothioate, sugars by position not given here; further chemistry not fully specified) [compound 399301]”, the % Inhibition – broadly, the percentage by which the read-out fell short of the control – stood at 8% with PTP1B mRNA [5] (PPS 198, 1.11 nM); 63% in the data set with PTP1B mRNA [5] (PPS 198, 3.33 nM); 91% with PTP1B mRNA [5] (PPS 198, 10.0 nM); 97% in the data set with PTP1B mRNA [5] (PPS 198, 30.0 nM); 16% with PTP1B mRNA [5] (PPS 3000, 1.11 nM); 65% in the data set with PTP1B mRNA [5] (PPS 3000, 3.33 nM). For the same substance, the “% Inhibition” value with PTP1B mRNA [5] (PPS 3000, 10.0 nM) is 93%; with PTP1B mRNA [5] (PPS 3000, 30.0 nM) it was 99%. The “% Inhib” value stood at 55% in the data set on PTP1B mRNA [6] and 43% with PTP1B mRNA [7].

With “404137 (antisense e[5mC]*eA*dG*dT*dG*dT*dG*d[5mC]*dA*d[5mC]*dA*d[5mC]*eA*eG) [compound 404137]”, the figures for the “% Inhib” value in the data set with PTP1B mRNA [6] and in the data set with PTP1B mRNA [7] were 76% and 71%, respectively.

On to “404138 (antisense e[5mC]*eT*d[5mC]*dA*dG*dT*dG*dT*dG*d[5mC]*dA*d[5mC]*eA*e[5mC]) [compound 404138]”, for which the “% Inhib” value in the data set with PTP1B mRNA [6] came to 76%; with PTP1B mRNA [7] it was 86%.

In the case of “404139 (eG*eT*dG*d[5mC]*dA*d[5mC]*dA*d[5mC]*dA*dG*d[5mC]*dT*eG*eA) [compound 404139]”, the results for the “% Inhib” value in the data set with PTP1B mRNA [6] and with PTP1B mRNA [7] were 80% and 45%, respectively.

Regarding “404140 (eG*e[5mC]*dA*d[5mC]*dA*d[5mC]*dA*dG*d[5mC]*dT*dG*dA*eG*eG) [compound 404140]”, the “% Inhib” value in the data set on PTP1B mRNA [6] came to 73%; with PTP1B mRNA [7], 93%.

On to “ISIS 391872: GGTACATGGAAGTC 1-1-10-2 2′-(butylacetomido)-palmitamide Methyleneoxy BNA/Methyleneoxy BNA, Unmodified cytosines in gap, ApoB ([PAM-G]*lG*dT*dA*dC*dA*dT*dG*dG*dA*dA*dG*lT*l[5mC])”, for which the Triglycerides result in data set [8] (at the 2.5 and 1.0 mg/kg doses) was “reduced”. For the same substance, the “total cholesterol, HDL-C and LDL-C” value in data set [8] (in a dose-dependent manner) was “markedly reduced”.

Turning to “ISIS 398296: GGTACATGGAAGTC 2-10-2 (6′S)-6′-methyl-Methyleneoxy BNA, Unmodified Cytosines, ApoB (2-10-2 6'-(S)-methyl BNA gapmer, chemistry not fully specified)”, the ED50 (usually the dose at which the effect has come halfway, by size or by number of responders) with ApoB mRNA [4] (single i.p. injection) is given as 8.7 mg/kg.
